Patent US8236858B2, “Substituted aryl-indole compounds and their kynurenine/kynuramine-like metabolites as therapeutic agents” (Neurim Pharmaceuticals (1991) Ltd., priority 2006, dated 2012)

What was measured:
[1] = system: NMDA-activated currents; assay: Electrophysiological characterisation of NMDA-activated currents in freshly isolated hippocampal neurones (whole-cell patch clamp); type: cell-based, Wistar rats; conditions: for % Inhibition Peak Current / % Inhibition Steady State Current: 1 μM substance, 10 μM glycine, 300 μM L-aspartate, holding potential −70 mV, mean of at least 4 cells; for blocking activity on NMDA-activated currents (in words): summary of Table 3, 1 μM
Protocol: Isolation of hippocampal neurons: Wistar rats (12-14 days) were decapitated without anesthesia and the hippocampus was removed. It was manually cut into slices (0.2-0.4 mm), in a solution containing (mM): 150 NaCl; 5 KCL; 1.25 NaH2PO4; 2 CaCl2; 2 MgCl2; 26 NaHCO3; 20 glucose. Slices were preincubated in this solution for 30 min at room temperature. The enzymatic treatment proceeded in the same solution with lower Ca^2+ concentration (0.5 mm) containing 0.4 mg/ml protease from aspergillus oryzae. The incubation in the enzyme solution proceeded at 32° C. within 10 min. Slices were kept subsequently in enzyme-free solution containing normal Ca^2±concentration and used within 6-8 h for obtaining isolated neurons. Throughout the entire procedure the solutions were continuously saturated with a 95% O2 and 5% CO2 gas mixture to maintain pH of 7.4. For cell dissociation the slice was transferred into the extracellular solution containing (mM): 150 NaCl; 5 KCl; 2 CaCl2; 10 n-2-hydroxyethylpiperazine-n′-2-ethanesulphonic acid (Hepes); pH adjusted with NaOH to 7.4. Single cells were isolated from CA and CA3 zones of hippocampal slices by vibrodissociation method. […] After isolation they were usually suitable for the recording for 1-2 h.
Salines and chemicals: The contents of the extracellular solution was as follows (in mM): 130 NaCl, 5KCl, 2CaCl2, 20 n-2-hydroxyethylpiperazine-n′-2-ethansulfonic acid (Hepes); 0.1 μm TTX, 10 μm glycine, […] 1-aspartate; pH was adjusted with NaOH to 7.4.
The contents of the intracellular solution were as follows (in mM): 110 CsF, 20 Tris-HCl (pH=7.2). L-aspartate and glycine solutions were prepared on the day of experiment.
The tested substances were dissolved in DMSO.
Current recording and data analysis: The drug-containing solutions were applied by the fast “concentration clamp” method using “jumping table” set-up. The currents were recorded with patch clamp technique in the whole-cell configuration. Recording of the currents was performed using EPC-7 L/M patch-clamp amplifier.
NMDA-activated currents: The currents were filtered at 3 kHz (three-pole active Bessel filter) digitally sampled at the rate 6000 μs per point for NMDA activated currents. NMDA-induced transmembrane currents were measured in the presence of 10 μM glycine and 300 μM L-aspartate in the control and test solutions. The currents were recorded at holding potential −70 mV.
Calculations: The inhibition of current at 1 μM of the substance was averaged at least for 4 cells. The effect of substance was measured as the mean ratio I/Io where I was the current under the action of substance and Io was the current in control conditions.

[2] = system: MPTP-treated mice; assay: Anti-Parkinsonian activity in MPTP-treated mice with a sub threshold dose of L-DOPA (motor activity counts); type: in vivo, C57 BL/6 mice; conditions: for LOCOMOTION / REARING / TOTAL ACTIVITY: MPTP-treated mice (2×40 mg/kg s.c.), compound 3 mg/kg orally + 5 mg/kg L-Dopa s.c., counts with Vehicle (no MPTP) = 100%; for reversal of the motor deficits of MPTP-treated mice (in words): 3 mg/kg, combined with a sub-threshold (inactive) dose of L-Dopa
Protocol: Animals: six month old male C57 BL/6 mice, weighing 22-25 g were used. Following arrival at the laboratory, the mice were allowed to acclimatize for two weeks in a room with controlled temperature (21±1° C.), and a constant light-dark schedule (12 hr on/12 hr off, lights on between 06.00 and 18.00 hrs). Free access to food and water was maintained throughout. They were housed in groups of 12 animals and tested only during the hours of light (08.00-15.00 hrs). All testing was performed in a normally lighted room.
Behavioural measurements and apparatus: An automated device, consisting of macrolon rodent test cages (40×25×15 cm), each placed within two series of infra-red beams (at two different heights, one low and one high, 2 and 8 cm, respectively, above the surface of the sawdust, 1 cm deep), was used to measure spontaneous and/or drug-induced motor activity of 1-methyl 4-phenyl 1,2,3,6-tetrahydropyridine (MPTP) and control mice. The following parameters were measured: LOCOMOTION was measured by the low grid of infrared beams. Counts were registered only when the mouse in the horizontal plane, ambulating around the test-cage. REARING was registered throughout the time when at least one high level beam was interrupted, i.e. the number of counts registered was proportional to the amount of time spent rearing. TOTAL ACTIVITY was measured by a sensor (a pick-up similar to a gramophone needle, mounted on a lever with a counterweight) with which the test cage was constantly in contact. The sensor registered all types of vibration received from the test cage, such as those produced both by locomotion and rearing as well as shaking, tremors, scratching and grooming.
Behavioral measurements (locomotion, rearing and total activity): Twelve days after MPTP injections (2×40 mg/kg, s.c., 24 hr interval), the mice were administered orally with the different compounds at 3 mg/kg or vehicle (0.1% Tween-80 in 1% methylcellulose) and immediately thereafter placed in the activity test chambers and their motor behaviors were monitored for 60 min. After 60 min, the mice were injected with 5 mg/kg L-Dopa (s.c) and then replaced in the test chamber and activity measurements maintained for an additional 300 min.
Table 2 presents the locomotion, rearing and total activity counts of MPTP-treated and control mice administered either tested substances or vehicle administered with a sub threshold dose of L-Dopa.

[3] = biological target: T1, GSK3β (Homo sapiens, UniProt P49841); assay: Evaluation of GSK3β activity: inhibition of purified GSK3β, [γ-32P]ATP / GS-2 peptide filter assay; type: biochemical; conditions: for IC50: purified GSK3β expressed in Sf9 cells, 15 μM ATP, GS-2 peptide substrate, 30 min at 30° C.; for inhibiting activity on GSK3β activity (in words): summary of Table 1
T1 construct: made in house; host or cells: insect Sf9 cells
T1 sequence (P49841 whole entry, species assumed): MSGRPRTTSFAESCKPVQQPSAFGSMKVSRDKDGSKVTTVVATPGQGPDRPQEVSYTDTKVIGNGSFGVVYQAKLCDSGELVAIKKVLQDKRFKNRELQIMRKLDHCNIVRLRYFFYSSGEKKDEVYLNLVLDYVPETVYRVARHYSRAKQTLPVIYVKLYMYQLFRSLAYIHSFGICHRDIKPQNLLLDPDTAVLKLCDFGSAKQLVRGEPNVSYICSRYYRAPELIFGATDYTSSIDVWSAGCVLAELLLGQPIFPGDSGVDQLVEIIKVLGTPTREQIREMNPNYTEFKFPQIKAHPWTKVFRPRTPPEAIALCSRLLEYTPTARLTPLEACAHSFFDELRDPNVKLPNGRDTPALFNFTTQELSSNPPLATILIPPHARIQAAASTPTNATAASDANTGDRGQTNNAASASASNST
Protocol: Compounds were evaluated for inhibition against purified GSK3β. GSK3β was expressed in and purified from insect Sf9 cells. Compounds (10 μM) were assayed; following a 1/100 dilution of the enzyme in 1 mg/ml BSA, 10 mM DTT, with 5 μl of 40 μM GS-2 peptide as a substrate, in a buffer, in the presence of 15 μM [γ-^32P]ATP (3000 Ci/mmol; 1 mCi/ml) in a final volume of 30 μl. After 30-min incubation at 30° C., 25-μl aliquots of supernatant were spotted onto 2.5×3 cm pieces of Whatman P81 phosphocellulose paper, and, 20 s later, the filters were washed five times (for at least 5 min each time) in a solution of 10 ml of phosphoric acid/liter of water. The wet filters were counted in the presence of 1 ml of scintillation fluid.

Row | IC50 [3] | inhibiting activity on GSK3β activity (in words) [3] | SMILES | % Inhibition Peak Current [1] | % Inhibition Steady State Current [1] | LOCOMOTION [2] | REARING [2] | TOTAL ACTIVITY [2] | reversal of the motor deficits of MPTP-treated mice (in words) [2] | blocking activity on NMDA-activated currents (in words) [1]
1 |  |  | Nc1ccccc1C(=O)CCNc1ccc([N+](=O)[O-])cc1Br [2-(2-aminobenzoyl)-N-2-bromo-4-nitro-phenylethylamine] | 86.23% | 90.78% |  |  |  |  | 
2 |  |  | Nc1ccccc1C(=O)CCNc1ccc(Br)cc1[N+](=O)[O-] [2-(2-aminobenzoyl)-N-2-nitro-4-bromo-phenylethylamine] | 90.85% | 88.77% |  |  |  |  | 
3 | 29.3 µM | significant inhibiting activity | N#Cc1ccc(NCCC(=O)c2ccccc2N)c([N+](=O)[O-])c1 [2-(2-aminobenzoyl)-N-2-nitro-4-cyano-phenylethylamine] | 85.95% | 87.24% | 17% | 29% | 46% |  | 
4 |  |  | CS(=O)(=O)c1ccc(NCCC(=O)c2ccccc2N)c([N+](=O)[O-])c1 [2-(2-aminobenzoyl)-N-2-nitro-4-methylsulfonyl-phenylethylamine] |  |  | 54% | 100% | 72% | significantly reversed the motor deficits | 
5 | 18.5 µM |  | Nc1ccccc1C(=O)CCNc1ccccc1[N+](=O)[O-] [2-(2-aminobenzoyl)-N-2-nitrophenylethylamine] |  |  | 17.6% | 25% | 45% |  | 
6 |  |  | COc1ccc2[nH]cc(CCNc3ccc([N+](=O)[O-])cc3C(=O)O)c2c1 [N-(2-Carboxy-4-nitrophenyl)-5-methoxytryptamine] | 84% | 93.6% |  |  |  |  | 
7 | 14.2 µM | significant inhibiting activity | O=C(O)c1cc([N+](=O)[O-])ccc1NCCc1c[nH]c2ccccc12 [N-(2-Carboxy-4-nitrophenyl)-tryptamine] | 76.7% | 70.4% | 16% | 25% | 45% |  | significant blocking activity
8 |  |  | COc1ccc2[nH]cc(CCNc3ccc([N+](=O)[O-])cc3Br)c2c1 [N-(2-bromo-4-nitrophenyl)-5-methoxytryptamine] | 91.53% | 86.57% |  |  |  |  | 
9 |  |  | COc1ccc2[nH]cc(CCNc3ccc([N+](=O)[O-])cc3C#N)c2c1 [N-(2-cyano-4-nitrophenyl)-5-methoxytryptamine] | 96.21% | 88.21% |  |  |  |  | 
10 |  |  | O=[N+]([O-])c1cc(Br)ccc1NCCc1c[nH]c2ccccc12 [N-(2-nitro-4-bromophenyl)-tryptamine] | 95.8% | 83% |  |  |  |  | significant blocking activity
11 |  |  | O=C(O)c1ccc(NCCc2c[nH]c3ccccc23)c([N+](=O)[O-])c1 [N-(4-Carboxy-2-nitrophenyl)-tryptamine] | 101.6% | 92.84% |  |  |  |  | 
12 |  |  | COc1ccc2[nH]cc(CCNc3ccc(Br)cc3[N+](=O)[O-])c2c1 [N-(4-bromo-2-nitrophenyl)-5-methoxytryptamine] | 104.2% | 78.18% | 16% | 24% | 46% |  | significant blocking activity
13 |  |  | COc1ccc2[nH]cc(CCNc3ccc(S(C)(=O)=O)cc3[N+](=O)[O-])c2c1 [N-(4-methylsulfonyl-2-nitrophenyl)-5-methoxytryptamine] |  |  | 41% | 74% | 70% | significantly reversed the motor deficits | 
